The molecules below were run against CSF-1R (Homo sapiens (Human), UniProt P07333) (assay: In vitro CSF-1R kinase activity measured by trFRET). Conditions: recombinant human catalytic domain (aa 538-910), 0.1 mM ATP; read-out: CSF-1R enzyme IC50.
Format: biochemical
Method: In Vitro CSF-1R Kinase Activity Measured by Time-Resolved Fluorescence Resonance Energy Transfer (trFRET)
The CSF-1R construct corresponds to recombinant human catalytic domain (aa 538-910), which was purchased from Invitrogen (cat #PV4092). CSF-1R was mixed with peptide substrate (biotin-TYR1, Sequence: Biotin-(Ahx)-GAEEEIYAAFFA-COOH, 4 μM final) at varying inhibitor concentrations in reaction buffer: 50 mM MOPSO pH 6.5, 10 mM MgCl2, 2 mM MnCl2, 2.5 mM DTI, 0.01% BSA, 0.1 mM Na3VO4 and 0.1 mM ATP. After about 60 min incubation at rt, the reaction was quenched by addition of EDTA (final concentration: 100 mM) and developed by addition of detection reagents (final approximate concentrations: 30 mM HEPES pH 7.0, 0.06% BSA, 0.006% Tween-20, 0.24 M KF, 80 ng/mL PT66K (europium labeled anti-phosphotyrosine antibody cat #61T66KLB Cisbio, Bedford, Mass.) and 0.6 μg/mL SAXL (Phycolink streptavidin-allophycocyanin acceptor, cat #PJ25S, Prozyme, San Leandro, Calif.). The developed reaction was incubated in the dark for about 60 min at rt, then read via a time-resolved fluorescence detector (Rubystar, BMG) using a 337 nm laser for excitation and monitoring emission wavelength at 665 nm. Within the linear range of the assay, the observed signal at 665 nm was directly related to phosphorylated product and can be used to calculate the IC50 values.

Sequence of CSF-1R (P07333 538-910): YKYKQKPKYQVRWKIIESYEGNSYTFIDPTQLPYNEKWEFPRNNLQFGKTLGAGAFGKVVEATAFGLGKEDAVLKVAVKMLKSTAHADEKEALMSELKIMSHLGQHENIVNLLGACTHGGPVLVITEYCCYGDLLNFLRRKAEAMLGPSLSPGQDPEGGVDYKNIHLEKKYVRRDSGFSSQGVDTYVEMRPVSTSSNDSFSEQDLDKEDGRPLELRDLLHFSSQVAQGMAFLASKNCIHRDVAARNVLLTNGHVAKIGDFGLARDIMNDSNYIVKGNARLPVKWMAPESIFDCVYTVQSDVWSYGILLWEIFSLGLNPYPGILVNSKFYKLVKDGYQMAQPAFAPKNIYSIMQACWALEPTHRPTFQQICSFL

IC50, < 0.1 µM:
CN1CCn2nc(Nc3cc(C4CCCCC4)cn4ncnc34)cc2C1 [E.1.7, 6-cyclohexyl-N-(5-methyl-4,5,6,7-tetrahydropyrazolo[1,5-a]pyrazin-2-yl)-[1,2,4]triazolo[1,5-a]pyridin-8-amine]
Cn1cc(Nc2nc(C3CCCC3)cn3ncnc23)cn1 [E.1.8, 6-cyclopentyl-N-(1-methyl-1H-pyrazol-4-yl)-[1,2,4]triazolo[1,5-a]pyrazin-8-amine]
CN1CCn2nc(Nc3cc(C4CCCC4)cn4ncnc34)cc2C1 [E.1.9, 6-cyclopentyl-N-(5-methyl-4,5,6,7-tetrahydropyrazolo[1,5-a]pyrazin-2-yl)-[1,2,4]triazolo[1,5-a]pyridin-8-amine]
Cn1cc(Nc2nc(C3CCCCC3)cn3ncnc23)cn1 [E.1.10, 6-cyclohexyl-N-(1-methyl-1H-pyrazol-4-yl)-[1,2,4]triazolo[1,5-a]pyrazin-8-amine]
CC(C)(O)Cn1cc(Nc2nc(C3CCCCC3)cn3ncnc23)cn1 [Example 11, 1-(4-((6-cyclohexyl-[1,2,4]triazolo[1,5-a]pyrazin-8-yl)amino)-1H-pyrazol-1-yl)-2-methylpropan-2-ol]
c1nc2c(Nc3cc4n(n3)CCOC4)cc(C3CCCC3)cn2n1 [Example 12, N-(6-cyclopentyl-[1,2,4]triazolo[1,5-a]pyridin-8-yl)-6,7-dihydro-4H-pyrazolo[5,1-c][1,4]oxazin-2-amine]
OC1CCN(c2ccc(Nc3cc(C4CCCCC4)cn4ncnc34)nc2)CC1 [Example 13, 1-(6-((6-cyclohexyl-[1,2,4]triazolo[1,5-a]pyridin-8-yl)amino)pyridin-3-yl)piperidin-4-ol]
CN1CCC(n2cc(Nc3nc(C4CCCCC4)cn4ncnc34)cn2)CC1 [Example 14, 6-cyclohexyl-N-(1-(1-methylpiperidin-4-yl)-1H-pyrazol-4-yl)-[1,2,4]triazolo[1,5-a]pyrazin-8-amine]
OCCCn1cc(Nc2nc(C3CCCCC3)cn3ncnc23)cn1 [Example 15, 3-(4-((6-cyclohexyl-[1,2,4]triazolo[1,5-a]pyrazin-8-yl)amino)-1H-pyrazol-1-yl)propan-1-ol]
O=C(O)[C@H]1CC[C@@H](n2cc(Nc3nc(C4CCCCC4)cn4ncnc34)cn2)CC1 [Example 16, cis-4-(4-((6-cyclohexyl-[1,2,4]triazolo[1,5-a]pyrazin-8-yl)amino)-1H-pyrazol-1-yl)cyclohexanecarboxylic acid]
C[C@@H]1C[C@@H](n2cc(Nc3nc(C4CCCCC4)cn4ncnc34)cn2)C[C@H](C)N1 [Example 17, 6-cyclohexyl-N-(1-((2R,4S,6S)-2,6-dimethylpiperidin-4-yl)-1H-pyrazol-4-yl)-[1,2,4]triazolo[1,5-a]pyrazin-8-amine]
CC(=O)N1CCC(n2cc(Nc3nc(C4CCCCC4)cn4ncnc34)cn2)CC1 [F.1.43, 1-(4-(4-((6-cyclohexyl-[1,2,4]triazolo[1,5-a]pyrazin-8-yl)amino)-1H-pyrazol-1-yl)piperidin-1-yl)ethanone]
CNC(=O)N1CCC(n2cc(Nc3nc(C4CCCCC4)cn4ncnc34)cn2)CC1 [F.1.44, 4-(4-((6-cyclohexyl-[1,2,4]triazolo[1,5-a]pyrazin-8-yl)amino)-1H-pyrazol-1-yl)-N-methylpiperidine-1-carboxamide]
O[C@H]1CCC[C@H](n2cc(Nc3nc(C4CCCCC4)cn4ncnc34)cn2)C1 [G.1.1]
O[C@@H]1CCC[C@@H](n2cc(Nc3nc(C4CCCCC4)cn4ncnc34)cn2)C1 [G.1.2]
O[C@@H]1CCC[C@H](n2cc(Nc3nc(C4CCCCC4)cn4ncnc34)cn2)C1 [G.1.3]

From patent publication US10280184B2, “Heterocyclic kinase inhibitors” (AbbVie Inc., priority 2014, dated 2019)
